Legend:
Experiment in all cases: in vitro antibacterial screening, MIC by microtitration in TSB
Assay type in all cases: cell-based
Pseudo. aerug. 58.38 = details: Pseudomonas aeruginosa
Excerpt: (§1) They show activity when tested by well-recognized in vitro antibacterial screening procedures.

Esch. coli JR-76.2 = details: Escherichia coli, JR76.2
Excerpt: as §1

Klebs. pneumoniae MGH-1 = details: Klebsiella pneumoniae, MGH1
Excerpt: as §1

Pseudo. aerug. LA-3399 = details: Pseudomonas aeruginosa
Excerpt: as §1

Pseudo. aerug. 733 = details: Pseudomonas aeruginosa
Excerpt: as §1

Pseudo. aerug. UI-18 = details: Pseudomonas aeruginosa
Excerpt: as §1

Pseudo. aerug. No. 28 = details: Pseudomonas aeruginosa
Excerpt: as §1

Pseudo. aerug. G-76 = details: Pseudomonas aeruginosa, Pseudo. aerug. G-76, butirosin and gentamicin resistant
Excerpt: as §1

Serr. marcescens IMM-5 = details: Serratia marcescens, IMM5
Excerpt: as §1

Pseudo. aerug. VAD12-7-7 = details: Pseudomonas aeruginosa
Excerpt: as §1

Staph aureus S18713 = details: Staphylococcus aureus, Staph aureus S18713, butirosin resistant
Excerpt: as §1

Pseudo. aerug. 130 = details: Pseudomonas aeruginosa, Pseudo. aerug. 130, gentamicin resistant
Excerpt: as §1

Pseudo. aerug. Aquilar = details: Pseudomonas aeruginosa, butirosin resistant
Excerpt: as §1

Pseudo. aerug. 74C-1 = details: Pseudomonas aeruginosa
Excerpt: as §1

Entero. cloacae IMM-50 = details: Enterobacter cloacae, IMM50
Excerpt: as §1

Measured: MIC

NCC[C@H](O)C(=O)N[C@@H]1C[C@H](N)[C@@H](O[C@H]2O[C@H](CN)C[C@H](O)[C@H]2N)[C@H](O[C@@H]2O[C@H](CN)[C@H](O)[C@H]2O)[C@H]1O [I carbonate, 5"-amino-4',5"-dideoxybutirosin A]
3.1 µg/mL: Pseudo. aerug. No. 28 | Pseudo. aerug. 74C-1
25 µg/mL: Esch. coli JR-76.2 | Pseudo. aerug. Aquilar
1.6 µg/mL: Pseudo. aerug. VAD12-7-7
12.5 µg/mL: Pseudo. aerug. LA-3399 | Pseudo. aerug. G-76 | Serr. marcescens IMM-5
6.3 µg/mL: all other assays above

Reference: US3983102A, “Process for preparing 5"-amino-4',5"-dideoxybutirosin A” (Parke, Davis & Company, priority 1975, dated 1976)
